The text below walks through data of patent US9980924B2, “Topical pterostilbene compositions for use in treating UV-induced loss of barrier function in skin” (The Regents of the University of California, priority 2014, dated 2018).

“Also recorded” adds a separate entry of the source.

One data set deals with human liver microsomes. In words: in vitro glucuronidation assay with pooled human liver microsomes. The class given is in vitro ADME. The settings on record: 100 μg pooled human liver microsomes (n=20), 500 μM compound. How it is done:
Human liver microsomes metabolize resveratrol much faster than pterostilbene. […] HPLC chromatographs are presented depicting either parent compound or indicated glucuronide metabolite. Glucuronide metabolite peaks were confirmed by subsequent treatment with β-glucuronidase (data not shown). Detection of peaks by UV/VIS detector at 308 nm.
Specifically, in vitro glucuronidation assays were performed as previously described in one co-inventor's work (Dellinger, R. W., et al., “Glucuronidation of PhIP and N—OH-PhIP by UDP-glucuronosyltransferase 1A10,” Carcinogenesis (2007) 28: 2412-8; Dellinger, R. W., et al., “Importance of UDP-glucuronosyltransferase 1A10 (UGT1A10) in the detoxification of polycyclic aromatic hydrocarbons: decreased glucuronidative activity of the UGT1A10139Lys isoform,” Drug Metab. Dispos. (2006) 34: 943-9; Chen, G., Dellinger, R. W., et al., “Glucuronidation of tobacco-specific nitrosamines by UGT2B10,” Drug Metab. Dispos.

Another data set has as its system SKH-1 mice. Description: UV-B-induced skin damage and loss of barrier function (redness, TEWL) in SKH-1 mice, topical treatment. The class given is in vivo. To be noted: topical 10 μmol/0.2 ml acetone/mouse 30 minutes before 180 mJ/cm^2 UV-B, every 2 days, 7 treatments; for prevention of UV-mediated transepidermal water loss (TEWL) / loss of barrier function: versus vehicle+UV-B. An excerpt:
FIG. 2 depicts the manner in which pterostilbene prevents UV-B induced damage in the skin of SKH-1 mice. […] Photographs show representative mice after 4th treatment.
FIG. 3 depicts the manner in which pterostilbene prevents UV-mediated loss of skin barrier function in SKH-1 mice after exposure to UV-B radiation as described above for FIG. 2. TEWL measurements are expressed in g/m^2·h (and labeled ‘TD Water Loss’).
UV-B exposure. Mice were exposed to a single dose of 180mJ/cm^2 UVB radiation delivered via broadband UVB lamps (TL 40W/12 RS; Philips) emitting 290-350 nm light with a peak emission at 312 nm. The irradiance was measured using a thermopile sensor (818P-001-12; Newport Inc., Irvine, Calif.) and power meter (842-PE; Newport Inc.).
TEWL measurement. For transepidermal water loss (TEWL) a closed measurement chamber device (VapoMeter, Delfin Technologies Ltd, Kuopio, Finland) measuring flux density (gram/m^2·h) was used applying the sensor with even and constant pressure to dorsal skin by a single operator per manufacturer's instructions.
Statistics. All statistical analyses were performed using CRAN R, version 3.0.0, an open-source program of The R Foundation for Statistical Computing. Linear mixed-effect models were fit for each endpoint with a random effect for the mouse and fixed effects for UV exposure, treatment group, and their interaction.
Hairless SKH-1 mice were used to evaluate the effectiveness of pterostilbene at preventing UV-mediated damage in skin. The SKH-1 model is ideally suited for this purpose and is commonly used in preclinical studies and yielded valuable results. […] To ascertain if pterostilbene could also prevent those molecular alterations, we replicated these experiments. […] For all topical treatments 200 μl total volume was applied to the back skin of the mouse. For acetone group, 200 μl of acetone was applied. […] These mice were treated every 2 days for 7 total treatments. […] 24 hrs after last treatment, mice were euthanized, skin bi-fold measurements taken and back skins collected. […] This prevention of visual skin damage by pterostilbene correlated nicely with the prevention of loss of barrier function. […] Therefore pterostilbene prevented UV-induced loss of barrier function of the skin of SKH-1 mice.

The conditions of data set [1]: cited from earlier work.
For data set [2] the following is noted: rats; cited from earlier work.
For data set [3] the following is noted: 125 mg orally twice a day; cited from earlier work.
Another data set deals with mouse epidermis. To be noted: cited from earlier work.
In the next data set the test system is mouse skin. To be noted: cited from earlier work.
The conditions of data set [4]: humans; cited from earlier work.

Regarding `COc1cc(/C=C/c2ccc(O)cc2)cc(OC)c1` [pterostilbene, 3,5-dimethoxy-4′-hydroxy-trans-stilbene], the “fraction metabolized (glucuronidated) after 2 hours” value in the data set with human liver microsomes stood at 20%. Also, in the data set with SKH-1 mice, the “redness (sunburn) on back skin after UV-B” value is listed as “no redness was observed on any of the 5 mice” and the “prevention of UV-mediated transepidermal water loss (TEWL) / loss of barrier function” value is “prevents TEWL after UV exposure; also recorded: prevented UV-mediated TEWL”. The “half life t1/2 in blood” value in data set [1] is given as “about 105 minutes”. In addition, the “increased bioavailability in comparison to resveratrol” value in data set [2] is 5 fold. For the same compound, in data set [3], the overall blood pressure result is reported as “reduction in overall blood pressure was observed” and the toxicity in patients result is on record as “no toxicity reported”. For the same compound, the “COX-2 activation and TPA-induced tumor formation in mouse epidermis in vivo” value in the data set on mouse epidermis was “prevent”.

Consider `Oc1ccc(C=Cc2cc(O)cc(O)c2)cc1` [resveratrol], for which, in the data set on human liver microsomes, the “conversion to glucuronides after 2 hours (in words)” value is “almost completely converted to its glucuronides”. For the same compound, in the data set with SKH-1 mice, the “redness (sunburn) on back skin after UV-B” value is listed as “able to limit the amount of redness observed on the back, it did not prevent it”. Further, the “prevention of UV-mediated transepidermal water loss (TEWL) / loss of barrier function” value in the data set with SKH-1 mice was “did not prevent TEWL”; in the data set with SKH-1 mice (listed as Resveratrol), “ineffective”. Further, the “half life t1/2 in blood” value in data set [1] was “about 14 minutes”. Also, in the data set with mouse skin (given orally or applied topically), the “UV-B mediated cell damage (including hyperplasia) in mouse skin” value is reported as “prevents UV-B mediated cell damage (including hyperplasia)”. The “UV-induced skin cancer progression” value in the data set with mouse skin (several mouse studies) was “block UV-induced skin cancer progression”. In addition, the “bioavailability (in words)” value in data set [4] was “poor bioavailability”.
